Patent publication US10711004B2 (Genentech, Inc., priority 2018, dated 2020)
Like-named read-outs stand apart in the source and are kept apart here.

Biological target: human TRPA1 channel (Homo sapiens (Human), UniProt O75762)
Test: hTRPA1 CHO Ca2+ FLIPR Tetra assay, block of cinnamaldehyde induced calcium influx
Format: cell-based
Conditions: CHO cells expressing TRPA1, Hill coefficient fixed to 1.5
Procedure: CHO cells expressing TRPA1 were plated into 384-well plates, incubated overnight at 37° C., and loaded with BD calcium indicator dye for 1 hr at 37° C. followed by 15 minutes at room temperature. The assay buffer was Hank's Balanced Salt Solution (HBSS) containing 20 mM HEPES (pH readjusted to 7.4) along with 0.02% BSA.
Following dye load and plate cool down, compounds were added to the cells using FLIPR Tetra. Plates were then incubated with compounds for 10 minutes or 90 minutes at room temperature prior to adding agonist. Following this incubation, about an EC50 concentration of cinnamaldehyde (75) was added to active the channels and block of cinnamaldehyde induced calcium influx was measured.
Fixing the Hill coefficient will generally reduce variability of the IC50 determination. The IC50 results were individually examined to make sure the MIN and MAX points were set correctly prior to validation of the results.

[1] = read-out: hTRPA1 IC50 (10 min), compounds incubated 10 minutes at room temperature before cinnamaldehyde agonist
[2] = read-out: hTRPA1 IC50 (90 min), compounds incubated 90 minutes at room temperature before cinnamaldehyde agonist

Sequence of human TRPA1 channel (O75762 whole entry): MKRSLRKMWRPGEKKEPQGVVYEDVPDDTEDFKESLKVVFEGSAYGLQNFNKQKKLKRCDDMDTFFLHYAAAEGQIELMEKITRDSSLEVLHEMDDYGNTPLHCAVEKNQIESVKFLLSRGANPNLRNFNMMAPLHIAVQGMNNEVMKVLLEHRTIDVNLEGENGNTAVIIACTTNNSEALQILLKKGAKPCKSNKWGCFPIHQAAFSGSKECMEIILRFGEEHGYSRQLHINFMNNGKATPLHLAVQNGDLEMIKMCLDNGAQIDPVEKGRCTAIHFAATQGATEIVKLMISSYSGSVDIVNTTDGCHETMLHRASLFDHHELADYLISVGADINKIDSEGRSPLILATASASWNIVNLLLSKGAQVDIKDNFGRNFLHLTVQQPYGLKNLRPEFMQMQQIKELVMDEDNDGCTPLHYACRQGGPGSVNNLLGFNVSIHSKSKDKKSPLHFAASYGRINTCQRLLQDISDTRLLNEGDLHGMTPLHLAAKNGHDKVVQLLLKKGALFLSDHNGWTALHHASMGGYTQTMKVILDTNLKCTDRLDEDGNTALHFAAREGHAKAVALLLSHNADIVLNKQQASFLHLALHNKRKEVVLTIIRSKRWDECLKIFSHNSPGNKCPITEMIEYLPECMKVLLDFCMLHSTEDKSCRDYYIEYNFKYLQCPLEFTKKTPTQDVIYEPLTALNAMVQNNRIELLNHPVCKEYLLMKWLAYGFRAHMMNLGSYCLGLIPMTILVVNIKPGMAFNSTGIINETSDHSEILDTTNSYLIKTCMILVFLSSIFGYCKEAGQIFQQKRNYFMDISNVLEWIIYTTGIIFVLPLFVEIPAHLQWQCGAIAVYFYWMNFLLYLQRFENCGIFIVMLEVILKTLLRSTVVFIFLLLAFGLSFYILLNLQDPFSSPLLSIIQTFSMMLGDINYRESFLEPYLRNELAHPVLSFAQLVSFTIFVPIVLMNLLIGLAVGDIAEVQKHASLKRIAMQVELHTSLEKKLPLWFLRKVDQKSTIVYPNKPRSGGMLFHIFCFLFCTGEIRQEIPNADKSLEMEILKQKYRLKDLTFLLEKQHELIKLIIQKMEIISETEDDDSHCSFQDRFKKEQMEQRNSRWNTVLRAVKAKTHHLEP

Row | SMILES | IC50 [1] | IC50 [2]
1 | CN(C)C(=O)CNc1nc2ncn(Cc3nc([C@H]4[C@@H]5C=C(c6ccccc6)C[C@@H]54)no3)c(=O)c2n1C [Example Compound 244, N,N-dimethyl-2-[[7-methyl-6-oxo-1-[[3-[(1S,5S,6R)-3-phenyl-6-bicyclo[3.1.0]hex-2-enyl]-1,2,4-oxadiazol-5-yl]methyl]purin-8-yl]amino]acetamide] | 0.0687 µM | 0.026 µM
2 | O=c1c2cccnc2cnn1Cc1nc([C@H]2[C@@H]3CN(c4ccc5ncsc5c4)C[C@@H]32)no1 [Example Compound 279, 6-[[3-[(1R,5S)-3-(1,3-benzothiazol-6-yl)-3-azabicyclo[3.1.0]hexan-6-yl]-1,2,4-oxadiazol-5-yl]methyl]pyrido[2,3-d]pyridazin-5-one] | 0.0112 µM | 0.0056 µM
3 | Cc1ccnc2ncn(Cc3nc([C@H]4C[C@](F)(c5cccc(Cl)c5)C4)no3)c(=O)c12 [Example Compound 210, 3-((3-((1s,3s)-3-(3-chlorophenyl)-3-fluorocyclobutyl)-1,2,4-oxadiazol-5-yl)methyl)-5-methylpyrido[2,3-d]pyrimidin-4(3H)-one] | 0.0151 µM | 
4 | Cn1cnc2ncn(Cc3nc([C@H]4[C@@H]5CN(c6ccc(C=O)cc6)C[C@@H]54)no3)c(=O)c21 [Example Compound 32, 4-[(1R,5S,6r)-6-[5-[(7-methyl-6-oxo-purin-1-yl)methyl]-1,2,4-oxadiazol-3-yl]-3-azabicyclo[3.1.0]hexan-3-yl]benzaldehyde] | 0.0549 µM | 
5 | Cn1cnc2ncn(Cc3nc([C@@H]4[C@H]5CC[C@H](Oc6ccccc6)[C@H]54)no3)c(=O)c21 [Example Compound 240, 7-methyl-1-[[3-[(1R,2S,5R,6R)-2-phenoxy-6-bicyclo[3.1.0]hexanyl]-1,2,4-oxadiazol-5-yl]methyl]purin-6-one] | 0.254 µM | 0.08 µM
6 | Cn1cnc2ncn(Cc3nc([C@H]4[C@@H]5CN(c6ccc7c(c6)CCCC7)C[C@@H]54)no3)c(=O)c21 [Example Compound 136] | 0.685 µM | 
7 | Cn1cnc2ncn(Cc3nc([C@H]4[C@@H]5CN(c6ccc7ccccc7c6)C[C@@H]54)no3)c(=O)c21 [Example Compound 33, 7-methyl-1-[[3-[(1R,5S,6r)-3-[2-naphthyl]-3-azabicyclo[3.1.0]hexan-6-yl]-1,2,4-oxadiazol-5-yl]methyl]purin-6-one] | 0.00731 µM | 
8 | Cn1cnc2ncn(Cc3nc([C@H]4[C@@H]5CN(c6ccc7ncccc7c6)C[C@@H]54)no3)c(=O)c21 | 0.166 µM | 
9 | Cc1cnn2ncn(Cc3nc([C@H]4[C@@H]5CN(c6cc(F)ccn6)C[C@@H]54)no3)c(=O)c12 [Example Compound 117, 3-((3-((1R,5S,6r)-3-(4-fluoropyridin-2-yl)-3-azabicyclo[3.1.0]hexan-6-yl)-1,2,4-oxadiazol-5-yl)methyl)-5-methylpyrazolo[5,1-f][1,2,4]triazin-4(3H)-one] | 0.0192 µM | 0.0075 µM
10 | Cn1cnc2ncn(Cc3nc([C@H]4[C@@H]5C=C(c6ccc7ncsc7c6)C[C@@H]54)no3)c(=O)c21 [Example Compound 278, 7-methyl-1-[[3-[(1S,5S,6R)-3-(1,3-benzothiazol-6-yl)-6-bicyclo[3.1.0]hex-2-enyl]-1,2,4-oxadiazol-5-yl]methyl]purin-6-one] | 0.0158 µM | 0.0031 µM
11 | Cc1ccnc2ncn(Cc3nc([C@H]4C[C@](F)(c5cccc(F)c5)C4)no3)c(=O)c12 [Example Compound 143, 3-((3-((1s,3s)-3-fluoro-3-(3-fluorophenyl)cyclobutyl)-1,2,4-oxadiazol-5-yl)methyl)-5-methylpyrido[2,3-d]pyrimidin-4(3H)-one] | 0.0337 µM | 0.028 µM
12 | Cn1cnc2ncn(Cc3nc([C@H]4[C@@H]5CN(c6cccc(SC(F)(F)F)c6)C[C@@H]54)no3)c(=O)c21 | 0.3 µM | 
13 | Cn1cnc2ncn(Cc3nc([C@H]4[C@@H]5CN(c6cncc(C(F)(F)F)c6)C[C@@H]54)no3)c(=O)c21 [Example Compound 145, 7-methyl-1-((3-((1R,5S,6r)-3-(5-(trifluoromethyl)pyridin-3-yl)-3-azabicyclo[3.1.0]hexan-6-yl)-1,2,4-oxadiazol-5-yl)methyl)-1,7-dihydro-6H-purin-6-one] | 0.797 µM | 0.48 µM
14 | O=c1c2cccnc2ncn1Cc1nc([C@H]2[C@@H]3C=C(c4cc(Cl)ccn4)C[C@@H]32)no1 [Example Compound 161, 3-((3-((1S,5S,6R)-3-(4-chloropyridin-2-yl)bicyclo[3.1.0]hex-2-en-6-yl)-1,2,4-oxadiazol-5-yl)methyl)pyrido[2,3-d]pyrimidin-4(3H)-one] | 0.315 µM | 0.2 µM
15 | Cc1cncc2ncn(Cc3nc([C@H]4C[C@](O)(c5ccc(Cl)cc5)C4)no3)c(=O)c12 [Example Compound 9, 3-((3-((1s,3s)-3-(4-chlorophenyl)-3-hydroxycyclobutyl)-1,2,4-oxadiazol-5-yl)methyl)-5-methylpyrido[3,4-d]pyrimidin-4(3H)-one] | 0.0309 µM | 
16 | Cn1cnc2ncn(Cc3nc([C@H]4[C@@H]5C=C(c6ccccn6)C[C@@H]54)no3)c(=O)c21 [Example Compound 129, 7-methyl-1-((3-((1S,5S,6R)-3-(pyridin-2-yl)bicyclo[3.1.0]hex-2-en-6-yl)-1,2,4-oxadiazol-5-yl)methyl)-1,7-dihydro-6H-purin-6-one] | 0.209 µM | 0.21 µM

Results, then the compound that gave them:

Row | IC50 [1] | IC50 [2] | SMILES
17 | 0.0401 µM |  | Cn1cnc2ncn(Cc3nc([C@H]4C[C@H](Oc5ccc(F)cc5)C4)no3)c(=O)c21 [Example Compound 177, 1-((3-((1r,3r)-3-(4-fluorophenoxy)cyclobutyl)-1,2,4-oxadiazol-5-yl)methyl)-7-methyl-1,7-dihydro-6H-purin-6-one]
18 | 0.105 µM |  | Cn1cnc2ncn(Cc3nc([C@H]4[C@@H]5CN(c6cccc(OC(F)F)c6)C[C@@H]54)no3)c(=O)c21 [Example Compound 8, 7-methyl-1-[[3-[(1R,5S,6 r)-3-[3-(difluoromethoxy)phenyl]-3-azabicyclo[3.1.0]hexan-6-yl]-1,2,4-oxadiazol-5-yl]methyl] purin-6-one]
19 | 0.886 µM |  | Cn1cnc2ncn(Cc3nc([C@H]4C[C@H](c5cc(Cl)ccc5F)C4)no3)c(=O)c21 [Example Compound 209, 1-((3-((1r,3r)-3-(5-chloro-2-fluorophenyl)cyclobutyl)-1,2,4-oxadiazol-5-yl)methyl)-7-methyl-1,7-dihydro-6H-purin-6-one]
20 | 0.094 µM | 0.041 µM | Cn1cnc2ncn(Cc3nc([C@H]4[C@@H]5CN(c6ccc7scnc7c6)C[C@@H]54)no3)c(=O)c21 [Example Compound 221, 1-((3-((1R,5S,6r)-3-(benzo[d]thiazol-5-yl)-3-azabicyclo[3.1.0]hexan-6-yl)-1,2,4-oxadiazol-5-yl)methyl)-7-methyl-1,7-dihydro-6H-purin-6-one]
21 | 0.383 µM | 0.11 µM | Cn1cnc2ncn(Cc3nc([C@H]4[C@@H]5CN(c6ccncc6F)C[C@@H]54)no3)c(=O)c21 [Example Compound 131, 1-((3-((1R,5S,6r)-3-(3-fluoropyridin-4-yl)-3-azabicyclo[3.1.0]hexan-6-yl)-1,2,4-oxadiazol-5-yl)methyl)-7-methyl-1,7-dihydro-6H-purin-6-one]
22 | 0.0151 µM | 0.0063 µM | Cn1cnc2ncn(Cc3nc([C@H]4[C@@H]5CN(c6cc(F)ccc6F)C[C@@H]54)no3)c(=O)c21 [Example Compound 99, 1-((3-((1R,5S,6r)-3-(2,5-difluorophenyl)-3-azabicyclo[3.1.0]hexan-6-yl)-1,2,4-oxadiazol-5-yl)methyl)-7-methyl-1,7-dihydro-6H-purin-6-one]
23 | 0.295 µM |  | CC(=O)c1cccc(N2C[C@@H]3[C@H](C2)[C@H]3c2noc(Cn3cnc4ncn(C)c4c3=O)n2)c1
24 | 0.0643 µM |  | Cn1cnc2ncn(Cc3nc([C@H]4[C@@H]5CN(c6ccc(Cl)c(Cl)c6)C[C@@H]54)no3)c(=O)c21
25 | 0.0125 µM |  | Cn1cnc2ncn(Cc3nc([C@H]4[C@@H]5CN(c6cc(Cl)ccc6F)C[C@@H]54)no3)c(=O)c21
26 | 0.763 µM |  | Cn1cnc2ncn(Cc3nc([C@@H]4[C@H]5Oc6c(Cl)cccc6[C@H]54)no3)c(=O)c21 [Example Compound 187, 1-((3-((1R,1 aS,6bR)-3-chloro-1a,6b-dihydro-1H-cyclopropa[b]benzofuran-1-yl)-1,2,4-oxadiazol-5-yl)methyl)-7-methyl-1,7-dihydro-6H-purin-6-one]
27 | 0.0293 µM | 0.031 µM | Cn1cnc2ncn(Cc3nc([C@H]4[C@@H]5CN(c6cc(Cl)c(F)cc6F)C[C@@H]54)no3)c(=O)c21 [Example Compound 219, 1-((3-((1R,5S,6r)-3-(5-chloro-2,4-difluorophenyl)-3-azabicyclo[3.1.0]hexan-6-yl)-1,2,4-oxadiazol-5-yl)methyl)-7-methyl-1,7-dihydro-6H-purin-6-one]
28 | 0.0266 µM | 0.018 µM | Cn1cnc2ncn(Cc3nc([C@@H]4CC[C@@H](c5ccc(F)cc5)C4)no3)c(=O)c21 [Example Compound 172, 1-((3-((1R,3R)-3-(4-fluorophenyl)cyclopentyl)-1,2,4-oxadiazol-5-yl)methyl)-7-methyl-1,7-dihydro-6H-purin-6-one]
29 | 0.064 µM | 0.027 µM | Cn1cnc2ncn(Cc3nc([C@@H]4[C@H]5C=C(c6ccc(F)cn6)C[C@H]54)no3)c(=O)c21 [Example Compound 110, 1-((3-((1R,5R,6S)-3-(5-fluoropyridin-2-yl)bicyclo[3.1.0]hex-2-en-6-yl)-1,2,4-oxadiazol-5-yl)methyl)-7-methyl-1,7-dihydro-6H-purin-6-one]
